# From ChEMBL document CHEMBL3885881, “DrugMatrix”
# Organism: Rattus norvegicus
# Test: DrugMatrix - Regimen: Daily Repeat
# Format: toxicity, organism-based, Sprague-Dawley
# Set-up: regimen Daily Repeat, gender Male, age 6-8 weeks
# Conditions: in vivo, iv, vehicle 100 % SALINE; for ABSOLUTE BASOPHIL / ABSOLUTE EOSINOPHIL / ABSOLUTE LYMPHOCYTE / ABSOLUTE MONOCYTE / ABSOLUTE SEGMENTED NEUTROPHIL / BASOPHIL / EOSINOPHIL / ERYTHROCYTE COUNT / HEMATOCRIT / HEMOGLOBIN / LEUKOCYTE COUNT / LYMPHOCYTE / MEAN CORPUSCULAR HEMOGLOBIN / MEAN CORPUSCULAR HEMOGLOBIN CONCENTRATION / MEAN CORPUSCULAR VOLUME / MONOCYTE / NEUTROPHIL / NUCLEATED RED BLOOD CELLS / PLATELET COUNT: tissue Blood
# [1] = 0 mg/kg, 72 h, dose level Control, time 3 day
# [2] = 0 mg/kg, 72 h, tissue Plasma, dose level Control, time 3 day
# [3] = 0 mg/kg, 120 h, dose level Control, time 5 day
# [4] = 0 mg/kg, 120 h, tissue Plasma, dose level Control, time 5 day
# [5] = […], 72 h, dose 0.56 mg/Kg, dose level High, time 3 day
# [6] = […], 72 h, tissue Plasma, dose 0.56 mg/Kg, dose level High, time 3 day
# [7] = […], 120 h, dose 0.56 mg/Kg, dose level High, time 5 day
# [8] = […], 120 h, tissue Plasma, dose 0.56 mg/Kg, dose level High, time 5 day
substance,measurement,setting,value
INSULIN HUMAN,ABSOLUTE BASOPHIL,[1],0 CELLS/uL
same,ABSOLUTE EOSINOPHIL,[1],46.17 CELLS/uL
same,ABSOLUTE LYMPHOCYTE,[1],9089 CELLS/uL
same,ABSOLUTE MONOCYTE,[1],242 CELLS/uL
same,ABSOLUTE SEGMENTED NEUTROPHIL,[1],856.17 CELLS/uL
same,BASOPHIL,[1],0%
same,EOSINOPHIL,[1],0.5%
same,ERYTHROCYTE COUNT,[1],5.1 x10E6/uL
same,HEMATOCRIT,[1],32.5%
same,HEMOGLOBIN,[1],12.35 G/DL
same,LEUKOCYTE COUNT,[1],10.23 x10E3/uL
same,LYMPHOCYTE,[1],88.5%
same,MEAN CORPUSCULAR HEMOGLOBIN,[1],24.18 pg
same,MEAN CORPUSCULAR HEMOGLOBIN CONCENTRATION,[1],38 G/DL
same,MEAN CORPUSCULAR VOLUME,[1],63.62 fL
same,MONOCYTE,[1],2.5%
same,NEUTROPHIL,[1],8.5%
same,NUCLEATED RED BLOOD CELLS,[1],0.17 /100WBC
same,PLATELET COUNT,[1],1038.67 x10E3/uL
same,ALANINE AMINOTRANSFERASE,[2],51.33 u/L
same,ALBUMIN,[2],3.9 G/DL
same,ALKALINE PHOSPHATASE,[2],409.33 u/L
same,ASPARTATE AMINOTRANSFERASE,[2],91.67 u/L
same,CHLORIDE,[2],97.83 MEQ/L
same,CHOLESTEROL,[2],79.33 mg/dL
same,CREATINE PHOSPHOKINASE,[2],628.67 u/L
same,CREATININE,[2],0.21 mg/dL
same,LACTATE DEHYDROGENASE,[2],120.33 u/L
same,PHOSPHORUS,[2],10.48 mg/dL
same,POTASSIUM,[2],5.83 MEQ/L
same,TOTAL BILIRUBIN,[2],0.2 mg/dL
same,TOTAL PROTEIN,[2],6.15 G/DL
same,URIC ACID,[2],0.45 mg/dL
same,ABSOLUTE BASOPHIL,[3],0 CELLS/uL
same,ABSOLUTE EOSINOPHIL,[3],12.17 CELLS/uL
same,ABSOLUTE LYMPHOCYTE,[3],10388 CELLS/uL
same,ABSOLUTE MONOCYTE,[3],140.17 CELLS/uL
same,ABSOLUTE SEGMENTED NEUTROPHIL,[3],1576.33 CELLS/uL
same,BASOPHIL,[3],0%
same,EOSINOPHIL,[3],0.17%
same,ERYTHROCYTE COUNT,[3],5.71 x10E6/uL
same,HEMATOCRIT,[3],35.57%
same,LEUKOCYTE COUNT,[3],12.12 x10E3/uL
same,LYMPHOCYTE,[3],85.83%
same,MEAN CORPUSCULAR HEMOGLOBIN,[3],23.53 pg
same,MEAN CORPUSCULAR HEMOGLOBIN CONCENTRATION,[3],37.73 G/DL
same,MONOCYTE,[3],1%
same,NEUTROPHIL,[3],13%
same,NUCLEATED RED BLOOD CELLS,[3],0.33 /100WBC
same,PLATELET COUNT,[3],1347.67 x10E3/uL
same,ALANINE AMINOTRANSFERASE,[4],47.83 u/L
same,ALKALINE PHOSPHATASE,[4],380 u/L
same,ASPARTATE AMINOTRANSFERASE,[4],81.17 u/L
same,BLOOD UREA NITROGEN,[4],14.67 mg/dL
same,CARBON DIOXIDE,[4],36.17 mmol/L
same,CHLORIDE,[4],98.17 MEQ/L
same,CHOLESTEROL,[4],69.33 mg/dL
same,CREATINE PHOSPHOKINASE,[4],547.17 u/L
same,CREATININE,[4],0.28 mg/dL
same,GLUCOSE,[4],140.5 mg/dL
same,LACTATE DEHYDROGENASE,[4],153.83 u/L
same,LIPASE,[4],7.83 u/L
same,POTASSIUM,[4],5.86 MEQ/L
same,TOTAL BILIRUBIN,[4],0.17 mg/dL
same,TOTAL PROTEIN,[4],6.33 G/DL
same,URIC ACID,[4],0.68 mg/dL
same,ABSOLUTE BASOPHIL,[5],0 CELLS/uL
same,ABSOLUTE EOSINOPHIL,[5],0 CELLS/uL
same,ABSOLUTE LYMPHOCYTE,[5],9557.33 CELLS/uL
same,ABSOLUTE MONOCYTE,[5],233.33 CELLS/uL
same,ABSOLUTE SEGMENTED NEUTROPHIL,[5],942.67 CELLS/uL
same,BASOPHIL,[5],0%
same,EOSINOPHIL,[5],0%
same,ERYTHROCYTE COUNT,[5],5.18 x10E6/uL
same,HEMATOCRIT,[5],33.13%
same,HEMOGLOBIN,[5],12.73 G/DL
same,LEUKOCYTE COUNT,[5],10.73 x10E3/uL
same,LYMPHOCYTE,[5],89.33%
same,MEAN CORPUSCULAR HEMOGLOBIN,[5],24.6 pg
same,MEAN CORPUSCULAR HEMOGLOBIN CONCENTRATION,[5],38.43 G/DL
same,MEAN CORPUSCULAR VOLUME,[5],64 fL
same,MONOCYTE,[5],2%
same,NUCLEATED RED BLOOD CELLS,[5],0.33 /100WBC
same,PLATELET COUNT,[5],1173.33 x10E3/uL
same,ALANINE AMINOTRANSFERASE,[6],50.67 u/L
same,ALBUMIN,[6],3.9 G/DL
same,ALKALINE PHOSPHATASE,[6],425.67 u/L
same,ASPARTATE AMINOTRANSFERASE,[6],87.67 u/L
same,BLOOD UREA NITROGEN,[6],16 mg/dL
same,CARBON DIOXIDE,[6],29.33 mmol/L
same,CHLORIDE,[6],98 MEQ/L
same,CHOLESTEROL,[6],73.33 mg/dL
same,CREATINE PHOSPHOKINASE,[6],247.67 u/L
same,CREATININE,[6],0.2 mg/dL
same,GLUCOSE,[6],158.67 mg/dL
same,LACTATE DEHYDROGENASE,[6],90.33 u/L
same,LIPASE,[6],12 u/L
same,POTASSIUM,[6],5.04 MEQ/L
same,SODIUM,[6],140.73 MEQ/L
same,TOTAL BILIRUBIN,[6],0.17 mg/dL
same,TOTAL PROTEIN,[6],6.1 G/DL
same,URIC ACID,[6],0.33 mg/dL
same,ABSOLUTE BASOPHIL,[7],0 CELLS/uL
same,ABSOLUTE EOSINOPHIL,[7],0 CELLS/uL
same,ABSOLUTE LYMPHOCYTE,[7],9972 CELLS/uL
same,ABSOLUTE MONOCYTE,[7],151.33 CELLS/uL
same,ABSOLUTE SEGMENTED NEUTROPHIL,[7],1610 CELLS/uL
same,BASOPHIL,[7],0%
same,EOSINOPHIL,[7],0%
same,ERYTHROCYTE COUNT,[7],5.32 x10E6/uL
same,HEMATOCRIT,[7],33.67%
same,LEUKOCYTE COUNT,[7],11.73 x10E3/uL
same,LYMPHOCYTE,[7],85%
same,MEAN CORPUSCULAR HEMOGLOBIN,[7],24.17 pg
same,MEAN CORPUSCULAR HEMOGLOBIN CONCENTRATION,[7],38.23 G/DL
same,NEUTROPHIL,[7],13.67%
same,NUCLEATED RED BLOOD CELLS,[7],0.33 /100WBC
same,PLATELET COUNT,[7],1293.67 x10E3/uL
same,ALANINE AMINOTRANSFERASE,[8],53.33 u/L
same,ALKALINE PHOSPHATASE,[8],426 u/L
same,ASPARTATE AMINOTRANSFERASE,[8],73 u/L
same,BLOOD UREA NITROGEN,[8],14.67 mg/dL
same,CARBON DIOXIDE,[8],34.67 mmol/L
same,CHLORIDE,[8],98 MEQ/L
same,CREATINE PHOSPHOKINASE,[8],305 u/L
same,CREATININE,[8],0.27 mg/dL
same,GLUCOSE,[8],134.67 mg/dL
same,LACTATE DEHYDROGENASE,[8],124.33 u/L
same,LIPASE,[8],7.67 u/L
same,PHOSPHORUS,[8],10.33 mg/dL
same,POTASSIUM,[8],5.91 MEQ/L
same,TOTAL BILIRUBIN,[8],0.2 mg/dL
same,TOTAL PROTEIN,[8],6.23 G/DL
same,URIC ACID,[8],0.6 mg/dL
